The test system of data set [1] is full thickness skin grafts in mice. Kind of data set: Full thickness skin graft (FTSG) model. The data set is classed as in vivo, mouse. As to conditions: for FTSG survival: wild type FTSG and wound beds infiltrated at grafting. On the procedure: Wild type, TSP1 null, CD47 null and CD36 null mice were matched for sex and age. Anesthesia was induced by and maintained with inhalation isoflurane. Body temperature was maintained at 37° C. with a heating pad during the procedure. The dorsal surface was clipped of hair and depilated with Nair®. The skin was then cleansed with surgical soap and alcohol and the animals draped. Using sterile technique, a 1×1 cm FTSG incorporating the panniculus carnosus, subcutaneous tissues and skin were raised. Graft dimensions were marked on the animal skin surface with the aid of a template to insure consistency in dimension. Grafts were in the midline of the animal and secured with four interrupted 5-0 nylon sutures. Sutures were so placed as to include the fascia of the dorsal musculature to provide increased immobilization of grafts to the underlying wound bed Animals were awakened and returned to individual cages and allowed ad libitum access to food and water. Trauma to FTSG was not encountered during the post-operative interval since grafts were located in the dorsal midline over the mid thoracic area and each animal was housed individually following surgery. On postoperative day three or seven, the animals were again anesthetized with inhalation isoflurane and skin graft survival evaluated.
The groups of animals utilized and the treatments received as indicated either at the time of skin grafting and/or during the post-operative interval are summarized in FIG. 21. Animals treated with ISDN (1 mg/ml) or L-NAME (0.5 mg/ml) had ad libitum access to drinking water containing the given concentrations of agents during the post-operative interval. Animals treated with a CD47 monoclonal antibody (Ab clone 301) or an isotype matched control antibody (Ig2α) underwent injection of 40 μg delivered as 10 μl of a 4 mg/ml stock in 100 μl of PBS with equal volumes injected between the wound bed and graft prior to suturing the graft in place. Animals treated with a CD47 morpholino oligonucleotide underwent injection of the FTSG and wound bed with 10 μmol/L in 250 μl of PBS with 125 μl volumes injected in the graft and wound bed, respectively prior to suturing the graft in place.
The necrotic areas of the FTSG were determined by color, refill, eschar, and the pin-prick test. The outlines of viable and nonviable areas were traced using transparent film, and the area of necrosis cut from the template and the area of skin graft necrosis versus total skin graft area determined by comparison of the original template weight to the weight of the cut template utilizing the method described by Ueda (Ueda et al., J Surg Res 80(2):200-204, 1998). Skin graft survival area was presented as the ration of graft survival on post-operative day three or seven divided by the original graft area multiplied by 100%. Additionally, digital images were then acquired using an Olympus C5500 digital camera at a fixed distance (20 cm perpendicular to the animal) under standard room lighting with autoflash and macro settings engaged and uploaded for image analysis of tissue survival with a standard software program (Image-Pro Plus, Media Cybernetics, Inc., Silver Spring, Md.). […]
Skin graft wound beds were assessed at indicated time points (72 hours or 7 days post-operatively) for visible alterations in vascularity under 5× magnification. […] Visible vessels without ramifications and branches were counted once. […]

For data set [2], the system named is ischemic hindlimbs in mice. Put plainly: Hindlimb ischemia model. It counts as in vivo, mouse. The conditions noted are these: ischemic wild type hindlimbs; for hindlimb tissue necrosis: morpholino 10 μM to thigh musculature. The protocol: Wild type C57BL6, TSP1 null, CD47 null and CD36 null mice, age and sex matched, underwent ligation of the left external iliac and common femoral arteries. The right limb served as control. All animals underwent examination every 24 h to assess clinical ischemia based on a previously published index (Paek et al., J Vasc Surg. 36:172-179, 2002). At the end of 3 or 7 days animals were euthanized, and the tibialis anterior muscles from the right and left limbs were harvested, weighed and processed for mitochondrial viability.
Mitochondrial viability of hindlimb muscle biopsies was assessed by the reduction of a tetrazolium salt to water insoluble formazan through mitochondrial oxidation as described (Bonheur et al., J Surg Res. 116:55-63, 2004). Tibialis anterior muscle biopsies were weighed and incubated in 3 ml of PBS supplemented 1:10 with 3-(4,5-dimethylthiazol-2-yl)-2,5 diphenyl tetrazolium stock (MTT, Promega, Madison, Wis.) for 3 h in the dark at 37° C., washed with distilled water and blotted dry. The formazan salt was extracted in 3 ml of 2-propranol for 6 hours in the dark at 37° C. Absorbance for 200 μl aliquots was determined at 425 nm on a microplate reader. Muscle samples were dried at 90° C. and weighed again. Results were expressed as absorbance normalized to dry tissue weight.

The subject of data set [3] is random dorsal cutaneous flaps in white hairless Yucatan miniature pigs. Kind of data set: Porcine random cutaneous flap model. The conditions noted are these: for flap necrosis: 2×10 cm flaps, injection at surgery. It counts as in vivo, pig. The protocol:
Animals underwent shaving of the dorsal surface hair and cleansing of the skin with soap and alcohol. Random dorsal cutaneous flaps 2×10×0.5 cm were elevated and immediately sutured in place with interrupted 4-0 nylon suture (Ethicon, Johnson & Johnson, N.J.). Treated flaps were injected with the indicated amounts of drug in sterile normal saline. On the 3 and 7 post-operative days tissue survival was determined and flaps excised for histology. In some instances animals received intravenous fluorescein prior to euthanasia and flap perfusion assessed under ultra violet illumination.
Clinical assessment of flap perfusion was performed with notation of color, capillary refill and bleeding to needle stick being recorded. Flap dimensions were then traced onto a clear plastic sheet and with demarcation of viable and non-viable areas made.
The internal jugular vein and common carotid arteries were cannulated and the animals perfused with a volume of 5 L heparinized (50 U/mL) normal saline heated to 50° C. A mixture of India ink and gelatin (5%) heated to 50° C. (1 L) was administered by gently pressing and then releasing the plunger of the syringe to simulate the arterial pulse. The flaps were excised and placed in 100% glycerin and stored at 4° C. for 10 days. During this time flap tissue became thin, desiccated and transparent and allowed visualization of the vascular architecture under direct transillumination.

With “CGTCACAGGCAGGACCCACTGCCCA (all phosphorodiamidate morpholino (PMO)) [CD47 morpholino]”, the “H & E histology of treated wild type FTSG” value in data set [1] (mouse, in vivo) is listed as “essentially normal tissue architecture without evidence of necrosis”. Moreover, the FTSG survival in data set [1] was found to be 79±5%. Also, the “wound bed vascular index” value in data set [1] (wild type wound beds) was “substantial increases in visible vasculature”. In data set [2], the muscle mitochondrial viability result is recorded as “increased muscle mitochondrial viability” and the hindlimb tissue necrosis entry was “essentially no tissue necrosis”. Further, in data set [3], the flap necrosis stood at 12±3%. Further, the flap tissue survival result in data set [3] (compared to untreated flaps) is reported as “significantly more tissue survival”.
In the case of “CGTgACAGcCAcGACCgACTGCgCA (antisense CGTGACAGCCACGACCGACTGCGCA; all phosphorodiamidate morpholino (PMO)) [control morpholino, reference compound]”, in data set [1], the FTSG survival entry is “significant graft necrosis and loss”. Also, in data set [2], the hindlimb tissue necrosis entry was “did not protect”. Also, in data set [3], the flap necrosis stood at 34±6%. Moreover, the “India ink staining of flap vessels” value in data set [3] (post-operative day 3) is listed as “lack of India ink staining of vessels”.

These data come from patent publication US8865672B2, “Prevention of tissue ischemia and related methods” (The United States of America, as represented by the …, priority 2006, dated 2014).
